Source: patent US8937078B2, “Quinazolinones as prolyl hydroxylase inhibitors” (Janssen Pharmaceutica NV, priority 2009, dated 2015)

Experiments:
human PHD2 (PHD2181-417) = biological target: T1, human PHD2 (PHD2181-417) (Homo sapiens, UniProt Q9GZT9); experiment: PHD enzymatic assay ([14C]-succinic acid production); type: biochemical; conditions: PHD2181-417, HIF-1α peptide 10 μM, average of results; for IC50: read-out: Enzyme pIC50 (converted)
T1 construct: Smt (SUMO) tag (cleaved yes); made in house; host or cells: E. coli BL21 (pBAD vector)
T1 sequence (Q9GZT9 181-417): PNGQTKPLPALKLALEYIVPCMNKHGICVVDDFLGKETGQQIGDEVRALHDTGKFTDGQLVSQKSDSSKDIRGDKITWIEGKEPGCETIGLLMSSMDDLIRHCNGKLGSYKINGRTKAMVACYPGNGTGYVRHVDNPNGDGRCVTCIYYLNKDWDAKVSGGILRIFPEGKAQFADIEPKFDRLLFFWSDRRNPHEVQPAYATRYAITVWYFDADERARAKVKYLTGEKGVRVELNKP
In short: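 Activity measured as [14C]-succinic acid formed from [5-14C]-2-oxoglutarate over 10 minutes, with peptide substrate at 10 μM, in Tris-HCl pH 7.5 buffer containing catalase, DTT and ascorbate. Unreacted oxoglutarate removed by DNP derivatisation; supernatant beta-counted.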

Hep-3B cells = experiment: Cellular assay: erythropoietin secretion in Hep-3B cells; type: cell-based, human; conditions: 100 μM compound, 24 hours, percent of EPO secretion relative to assay control compound 7-[(4-Chloro-phenyl)-(5-methyl-isoxazol-3-ylamino)-methyl]-quinolin-8-ol; for Emax at 100 µM: Homo sapiens, Hep3B, read-out: Cellular % EPO Stimulation
In short: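 Hep-3B cells in DMEM with 10% FBS, treated 24 h after plating with compounds at 100 μM final for a further 24 h. Secreted EPO in supernatant measured by MSD electrochemiluminescence sandwich immunoassay with anti-EPO detection antibody.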

Row | IC50 (human PHD2 (PHD2181-417)) | SMILES | Enzyme pIC50 (human PHD2 (PHD2181-417)) | Cellular % EPO Stimulation (Hep-3B cells) | Emax at 100 µM (Hep-3B cells)
1 | 25.1 nM | O=C(O)c1cnn(-c2nc3ccc(-c4ccc5c(c4)OCO5)cc3c(=O)[nH]2)c1 [Example 207, 1-(6-Benzo[1,3]dioxol-5-yl-4-oxo-3,4-dihydro-quinazolin-2-yl)-1H-pyrazole-4-carboxylic acid] |  |  | 84%
2 | 25.1 nM | O=C(O)c1cnn(-c2nc3ccc([N+](=O)[O-])cc3c(=O)[nH]2)c1 [Example 164, 1-(6-Nitro-4-oxo-3,4-dihydro-quinazolin-2-yl)-1H-pyrazole-4-carboxylic acid] |  |  | 17%
3 | 31.6 nM | O=C(O)c1cnn(-c2nc3ccc(-c4cccc(Cl)c4)cc3c(=O)[nH]2)c1 [Example 193, 1-[6-(3-Chloro-phenyl)-4-oxo-3,4-dihydro-quinazolin-2-yl]-1H-pyrazole-4-carboxylic acid] |  |  | 141%
4 | 25.1 nM | C=C(Cl)c1ccc2nc(-n3cc(C(=O)O)cn3)[nH]c(=O)c2c1 [Example 77, 1-[6-(1-Chloro-vinyl)-4-oxo-3,4-dihydro-quinazolin-2-yl]-1H-pyrazole-4-carboxylic acid] |  |  | 27%
5 | 25.1 nM | O=C(O)c1cnn(-c2nc3ccc(Oc4ccc(Cl)cc4Cl)cc3c(=O)[nH]2)c1 [Example 39, 1-[6-(2,4-Dichloro-phenoxy)-4-oxo-3,4-dihydro-quinazolin-2-yl]-1H-pyrazole-4-carboxylic acid] |  |  | 77%
6 | 31.6 nM | O=C(O)c1cnn(-c2nc3ccc(Oc4ccc(Cl)cc4)cc3c(=O)[nH]2)c1 [Example 46, 1-[6-(4-Chloro-phenoxy)-4-oxo-3,4-dihydro-quinazolin-2-yl]-1H-pyrazole-4-carboxylic acid] |  |  | 126%

Further lines, the compound ahead of its results:

Row | SMILES | IC50 (human PHD2 (PHD2181-417)) | Enzyme pIC50 (human PHD2 (PHD2181-417)) | Cellular % EPO Stimulation (Hep-3B cells) | Emax at 100 µM (Hep-3B cells)
7 | NC(CO)(CO)CO.O=C(O)c1cnn(-c2nc3cc(C4CCOCC4)ccc3c(=O)[nH]2)c1 [Example 67, 1-[4-Oxo-7-(tetrahydro-pyran-4-yl)-3,4-dihydro-quinazolin-2-yl]-1H-pyrazole-4-carboxylic acid tris(hydroxymethyl)aminomethane salt] |  | 7.8 | 18% | 
8 | O=C(O)c1cnn(-c2nc3ccccc3c(=O)[nH]2)c1 [Example 126, 1-(4-Oxo-3,4-dihydro-quinazolin-2-yl)-1H-pyrazole-4-carboxylic acid] | 63.1 nM |  |  | 9%
9 | COc1ccc2nc(-n3cc(C(=O)O)cn3)[nH]c(=O)c2c1 [Example 122, 1-(6-Methoxy-4-oxo-3,4-dihydro-quinazolin-2-yl)-1H-pyrazole-4-carboxylic acid] | 25.1 nM |  |  | 16%
10 | O=C(O)c1cnn(-c2nc3cc(Sc4ccccc4)ccc3c(=O)[nH]2)c1 [Example 78, 1-(4-Oxo-7-phenylsulfanyl-3,4-dihydro-quinazolin-2-yl)-1H-pyrazole-4-carboxylic acid] | 39.8 nM |  |  | 5%
11 | O=C(O)c1cnn(-c2nc3c(F)ccc(F)c3c(=O)[nH]2)c1 [Example 116, 1-(5,8-Difluoro-4-oxo-3,4-dihydro-quinazolin-2-yl)-1H-pyrazole-4-carboxylic acid] | 200 nM |  |  | 17%
12 | O=C(O)c1cnn(-c2nc3c(OC(F)(F)F)cccc3c(=O)[nH]2)c1 [Example 117, 1-(4-Oxo-8-trifluoromethoxy-3,4-dihydro-quinazolin-2-yl)-1H-pyrazole-4-carboxylic acid] | 794 nM |  |  | 12%
13 | O=C(O)c1cnn(-c2nc3ccc(C4CC4)cc3c(=O)[nH]2)c1 [Example 109, 1-(6-Cyclopropyl-4-oxo-3,4-dihydro-quinazolin-2-yl)-1H-pyrazole-4-carboxylic acid] | 25.1 nM |  |  | 100%
14 | COc1cc2nc(-n3cc(C(=O)O)cn3)[nH]c(=O)c2cc1OC [Example 17, 1-(6,7-Dimethoxy-4-oxo-3,4-dihydro-quinazolin-2-yl)-1H-pyrazole-4-carboxylic acid] | 200 nM |  |  | 33%
